In test [1] the target is IKKε(h) (Homo sapiens, UniProt Q14164). As to the kind of experiment: Kinase Profiler. In kind it is biochemical.
Procedure: (§3) Blood cell counts, kinase profiler, safety screen, bacterial cytotoxicity, Ames, micronucleus assays were performed by the company Eurofins (France). The kinase profiler was performed by the company Eurofins (Discovery, Panlab and Cerep).
Test [2] addresses Met(Y1248H)(h) (Homo sapiens, UniProt P08581, Y1230H). As to the kind of experiment: Kinase Profiler. In kind it is biochemical.
Procedure: (§4) The kinase profiler was performed by the company Eurofins (Discovery, Panlab and Cerep).
The target of test [3] is ErbB4(h) (Homo sapiens, UniProt Q15303). Put plainly: Kinase Profiler. It is filed as biochemical.
Procedure: as §4
In test [4] the target is CK2α2(h) (Homo sapiens, UniProt P19784). As to the kind of experiment: Kinase Profiler. In kind it is biochemical.
CK2α2(h), sequence (P19784 whole entry): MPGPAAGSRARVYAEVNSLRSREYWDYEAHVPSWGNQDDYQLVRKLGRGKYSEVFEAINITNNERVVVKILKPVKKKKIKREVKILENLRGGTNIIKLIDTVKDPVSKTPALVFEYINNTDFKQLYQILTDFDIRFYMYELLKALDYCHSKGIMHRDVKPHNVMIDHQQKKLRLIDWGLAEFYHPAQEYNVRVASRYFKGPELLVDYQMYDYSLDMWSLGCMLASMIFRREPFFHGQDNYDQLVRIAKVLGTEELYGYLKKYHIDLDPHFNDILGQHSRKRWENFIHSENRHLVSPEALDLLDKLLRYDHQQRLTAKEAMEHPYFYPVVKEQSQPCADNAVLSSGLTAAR
Procedure: as §4
The target in test [5] is DMPK(h) (Homo sapiens, UniProt Q09013). As to the kind of experiment: Kinase Profiler. It is filed as biochemical.
Procedure: as §3
The target of test [6] is TAO1(h) (Homo sapiens, UniProt Q7L7X3). As to the kind of experiment: Kinase Profiler. It is filed as biochemical.
TAO1(h), sequence (Q7L7X3 whole entry): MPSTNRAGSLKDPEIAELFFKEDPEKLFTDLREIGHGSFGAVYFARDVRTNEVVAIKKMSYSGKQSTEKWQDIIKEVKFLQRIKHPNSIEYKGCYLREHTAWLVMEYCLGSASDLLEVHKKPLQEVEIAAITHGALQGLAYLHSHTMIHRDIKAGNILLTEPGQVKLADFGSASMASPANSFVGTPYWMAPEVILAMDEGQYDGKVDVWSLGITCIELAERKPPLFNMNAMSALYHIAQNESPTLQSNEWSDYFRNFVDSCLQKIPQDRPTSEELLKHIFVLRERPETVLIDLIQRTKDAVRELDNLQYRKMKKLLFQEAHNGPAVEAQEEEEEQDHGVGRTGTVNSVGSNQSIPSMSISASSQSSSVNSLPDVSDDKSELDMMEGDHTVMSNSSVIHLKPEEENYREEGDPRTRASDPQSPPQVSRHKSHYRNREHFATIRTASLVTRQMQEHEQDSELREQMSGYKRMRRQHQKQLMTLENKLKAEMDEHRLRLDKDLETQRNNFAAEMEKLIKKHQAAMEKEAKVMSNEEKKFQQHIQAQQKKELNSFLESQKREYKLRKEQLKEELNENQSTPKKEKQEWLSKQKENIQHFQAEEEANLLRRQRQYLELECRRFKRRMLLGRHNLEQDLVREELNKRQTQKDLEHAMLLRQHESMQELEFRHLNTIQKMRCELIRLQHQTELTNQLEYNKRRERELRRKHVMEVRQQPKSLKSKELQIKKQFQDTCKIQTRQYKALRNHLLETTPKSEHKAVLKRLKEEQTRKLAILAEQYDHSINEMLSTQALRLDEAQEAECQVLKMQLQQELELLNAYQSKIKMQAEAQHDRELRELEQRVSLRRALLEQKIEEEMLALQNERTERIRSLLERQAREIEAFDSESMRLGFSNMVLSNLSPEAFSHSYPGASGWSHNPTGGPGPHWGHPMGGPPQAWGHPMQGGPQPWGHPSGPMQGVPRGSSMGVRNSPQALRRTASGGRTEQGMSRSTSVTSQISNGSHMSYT
Procedure: as §3
In test [7] the target is NEK3(h) (Homo sapiens, UniProt P51956). As to the kind of experiment: Kinase Profiler. In kind it is biochemical.
NEK3(h), sequence (P51956 whole entry): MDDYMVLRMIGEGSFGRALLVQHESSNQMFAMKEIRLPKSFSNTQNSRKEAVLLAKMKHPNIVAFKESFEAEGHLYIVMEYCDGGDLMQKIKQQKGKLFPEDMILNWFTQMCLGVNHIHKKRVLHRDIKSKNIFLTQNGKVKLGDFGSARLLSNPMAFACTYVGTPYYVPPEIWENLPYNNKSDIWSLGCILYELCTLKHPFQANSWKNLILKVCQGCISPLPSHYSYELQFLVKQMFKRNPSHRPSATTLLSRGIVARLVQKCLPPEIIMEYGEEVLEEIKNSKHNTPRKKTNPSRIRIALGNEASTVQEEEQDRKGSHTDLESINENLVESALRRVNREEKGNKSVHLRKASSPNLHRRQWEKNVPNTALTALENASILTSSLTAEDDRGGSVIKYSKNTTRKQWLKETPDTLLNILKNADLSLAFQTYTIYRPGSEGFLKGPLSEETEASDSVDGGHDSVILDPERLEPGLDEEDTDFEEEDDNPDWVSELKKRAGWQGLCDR
Procedure: as §4
Test [8] addresses Cholecystokinin CCK2 (CCKB) (Homo sapiens, UniProt P32239). As to the kind of experiment: Safety screen. It is filed as binding.
Procedure: Blood cell counts, kinase profiler, safety screen, bacterial cytotoxicity, Ames, micronucleus assays were performed by the company Eurofins (France).
For test [9], the target named is VRK1(h) (Homo sapiens, UniProt Q99986). Put plainly: Kinase Profiler. It is filed as biochemical.
VRK1(h), sequence (Q99986 whole entry): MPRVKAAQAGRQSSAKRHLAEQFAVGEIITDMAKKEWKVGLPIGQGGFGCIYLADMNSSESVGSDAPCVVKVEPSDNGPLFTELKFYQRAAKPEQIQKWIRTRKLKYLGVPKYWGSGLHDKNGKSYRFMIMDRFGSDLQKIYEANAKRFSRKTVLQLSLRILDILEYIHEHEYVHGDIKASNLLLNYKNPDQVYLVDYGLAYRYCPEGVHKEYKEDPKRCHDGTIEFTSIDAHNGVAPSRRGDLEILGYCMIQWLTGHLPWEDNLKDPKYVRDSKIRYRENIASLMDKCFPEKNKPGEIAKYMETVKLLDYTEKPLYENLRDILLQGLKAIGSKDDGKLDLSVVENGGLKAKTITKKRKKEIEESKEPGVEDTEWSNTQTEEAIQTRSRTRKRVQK
Procedure: as §4
Test [10] has as its target Ret(h) (Homo sapiens, UniProt P07949). Put plainly: Kinase Profiler. It is filed as biochemical.
Procedure: as §4
For test [11], the target named is T1, RAC1b (Homo sapiens, UniProt P63000).
T1 construct: expressed in transfected cells; host or cells: NIH-3T3 fibroblasts
As to the kind of experiment: RAC-GTP pull-down in transfected NIH-3T3 fibroblasts. In kind it is cell-based. Conditions: 10^-5 M. The method, then:
(§1) Figure 4 A41 selectively impairs RAC protein activation (A) Representative surface plasmon resonance (SPR) sensograms of binding of immobilized RHOA or CDC42 with indicated increasing concentrations of A41 (N > 3). (B) Effect of A41 on GEF-stimulated RAC2, RHOG, RHOA, and CDC42 nucleotide exchange. Purified small G proteins were pre-loaded with GDP and then nucleotide exchange was monitored by the increase in fluorescence following mant-GTP binding in the absence and presence of A41 (5 μM) (N = 3). Kobs is expressed as mean ± SEM. ∗p < 0.001 vs. control. (C) Effect of A41 on RAC1 G30S activation. RAC1 G30S activation was monitored by the increase in fluorescence following mant-GTP binding in the absence and presence of A41 (5 μM). […] Data are expressed as mean ± SEM. (D) Immunoblot analysis and associated quantification of RAC-GTP level and total RAC expression in NIH-3T3 fibroblasts expressing RAC wild-type (RAC1 WT) or RAC1 oncomutants (RAC1 P29S and RAC1b) in the absence (Ctrl) and presence of A41 (10 μM). RAC activation was measured as the ratio of RAC-GTP to total RAC and expressed relative to Ctrl condition. […]
(§2) Pull-down assay using GST-PBD fusion proteins were performed on NIH-3T3 lysates to assess RAC1 activity as previously described.[63] The precipitated active RAC was subjected to SDS-PAGE and detected by immunoblot with anti-RAC1 antibody (BD biosciences) (dilution 1/1000).

The target of test [12] is T2, RAC1 P29S (Homo sapiens, UniProt P63000, P29S).
T2 construct: expressed in transfected cells; host or cells: NIH-3T3 fibroblasts
The test is described as above. The note with it: 10^-5 M. It is filed as cell-based. On the procedure: as §1, §2

Test [13] deals with MLK3(h) (Homo sapiens, UniProt Q16584). Put plainly: Kinase Profiler. In kind it is biochemical.
Procedure: as §3
In test [14] the target is DYRK3(h) (Homo sapiens, UniProt O43781). As to the kind of experiment: Kinase Profiler. In kind it is biochemical.
Procedure: as §4
The target of test [15] is GRK3(h) (Homo sapiens, UniProt P35626). Put plainly: Kinase Profiler. In kind it is biochemical.
Procedure: as §3
The target of test [16] is Met(D1246N)(h) (Homo sapiens, UniProt P08581, D1228N). Put plainly: Kinase Profiler. It is filed as biochemical.
Procedure: as §4
Test [17] addresses GCK(h) (Homo sapiens, UniProt Q12851). Put plainly: Kinase Profiler. In kind it is biochemical.
Procedure: as §4
For test [18], the target named is Abl (M351T)(h) (Homo sapiens, UniProt P00519, M351T). As to the kind of experiment: Kinase Profiler. In kind it is biochemical.
Procedure: as §4
For test [19], the target named is Calcium Channel N-Type (Rattus norvegicus, UniProt Q02294). Put plainly: Safety screen. It is filed as binding.

Cholecystokinin CCK2 (CCKB), sequence (P32239 whole entry): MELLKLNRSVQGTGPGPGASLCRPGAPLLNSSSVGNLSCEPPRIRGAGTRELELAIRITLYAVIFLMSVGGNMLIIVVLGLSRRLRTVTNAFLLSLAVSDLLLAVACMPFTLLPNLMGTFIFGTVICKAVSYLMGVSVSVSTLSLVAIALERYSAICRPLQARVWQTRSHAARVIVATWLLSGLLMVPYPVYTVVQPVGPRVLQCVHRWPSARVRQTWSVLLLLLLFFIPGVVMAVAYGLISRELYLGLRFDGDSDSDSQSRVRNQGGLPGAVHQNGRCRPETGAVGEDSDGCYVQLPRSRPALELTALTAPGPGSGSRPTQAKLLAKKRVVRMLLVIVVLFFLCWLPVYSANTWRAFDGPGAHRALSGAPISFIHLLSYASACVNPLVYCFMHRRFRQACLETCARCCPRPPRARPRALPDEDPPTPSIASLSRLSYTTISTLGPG
IKKε(h), sequence (Q14164 whole entry): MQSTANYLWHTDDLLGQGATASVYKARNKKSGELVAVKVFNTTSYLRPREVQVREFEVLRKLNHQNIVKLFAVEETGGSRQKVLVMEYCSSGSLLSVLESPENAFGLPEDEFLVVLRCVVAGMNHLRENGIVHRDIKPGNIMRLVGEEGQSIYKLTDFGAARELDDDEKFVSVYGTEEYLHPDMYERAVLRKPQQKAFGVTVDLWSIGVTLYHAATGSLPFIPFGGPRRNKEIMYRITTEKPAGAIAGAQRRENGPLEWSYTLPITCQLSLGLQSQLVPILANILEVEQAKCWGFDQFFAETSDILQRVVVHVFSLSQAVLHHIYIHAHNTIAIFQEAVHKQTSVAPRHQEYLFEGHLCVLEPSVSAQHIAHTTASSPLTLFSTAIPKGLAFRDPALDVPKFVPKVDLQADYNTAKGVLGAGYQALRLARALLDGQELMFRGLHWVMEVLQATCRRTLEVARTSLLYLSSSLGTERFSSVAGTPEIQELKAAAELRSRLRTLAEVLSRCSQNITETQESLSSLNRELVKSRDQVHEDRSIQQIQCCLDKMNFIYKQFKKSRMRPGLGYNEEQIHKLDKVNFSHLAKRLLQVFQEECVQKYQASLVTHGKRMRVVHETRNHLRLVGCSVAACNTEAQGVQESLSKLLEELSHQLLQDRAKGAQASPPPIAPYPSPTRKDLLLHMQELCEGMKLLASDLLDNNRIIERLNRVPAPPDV
Ret(h), sequence (P07949 29-1114): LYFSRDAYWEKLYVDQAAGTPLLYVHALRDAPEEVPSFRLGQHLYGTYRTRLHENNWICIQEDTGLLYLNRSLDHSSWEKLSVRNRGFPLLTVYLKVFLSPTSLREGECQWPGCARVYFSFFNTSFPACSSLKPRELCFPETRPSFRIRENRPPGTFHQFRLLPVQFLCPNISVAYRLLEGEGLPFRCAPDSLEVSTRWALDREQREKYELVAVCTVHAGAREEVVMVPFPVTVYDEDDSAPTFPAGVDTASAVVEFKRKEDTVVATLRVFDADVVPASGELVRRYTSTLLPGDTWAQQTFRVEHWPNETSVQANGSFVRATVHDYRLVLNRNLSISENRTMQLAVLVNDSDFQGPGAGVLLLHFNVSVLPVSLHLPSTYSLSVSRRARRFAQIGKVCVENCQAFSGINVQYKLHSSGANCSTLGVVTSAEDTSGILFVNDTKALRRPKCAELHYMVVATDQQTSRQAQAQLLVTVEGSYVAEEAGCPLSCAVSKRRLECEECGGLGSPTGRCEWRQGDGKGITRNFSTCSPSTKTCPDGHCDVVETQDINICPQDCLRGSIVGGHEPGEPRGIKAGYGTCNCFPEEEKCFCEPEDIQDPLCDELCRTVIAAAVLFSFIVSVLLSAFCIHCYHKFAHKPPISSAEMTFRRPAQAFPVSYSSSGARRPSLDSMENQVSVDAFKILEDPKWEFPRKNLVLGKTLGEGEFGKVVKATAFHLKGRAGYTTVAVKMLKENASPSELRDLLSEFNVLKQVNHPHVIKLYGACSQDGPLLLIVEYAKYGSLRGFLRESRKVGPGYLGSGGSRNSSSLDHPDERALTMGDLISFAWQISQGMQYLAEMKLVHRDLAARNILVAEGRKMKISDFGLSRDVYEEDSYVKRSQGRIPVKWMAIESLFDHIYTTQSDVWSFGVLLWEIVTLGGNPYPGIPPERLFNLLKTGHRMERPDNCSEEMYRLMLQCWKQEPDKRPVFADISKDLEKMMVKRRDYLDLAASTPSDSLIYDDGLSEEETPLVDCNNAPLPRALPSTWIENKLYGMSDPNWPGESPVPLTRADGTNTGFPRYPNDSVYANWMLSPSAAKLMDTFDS

Consider `COc1ccc(OC)c(NS(=O)(=O)c2ccc(NC(=O)CCSc3ccc(C)cc3)cc2)c1` [Compound A41], for which the “Activity(%)” value in test [1] worked out at 106%; in test [2] it was 120%; in test [3], 108%; in test [4] it was 109%; in [5], 98%; in [6], 118%. Moreover, the “Activity(%)” value in test [7] was 107%; in test [9], 103%; in [10], 104%; in test [13], 115%; in test [14], 112%; in test [15], 106%. The “Activity(%)” value turned out to be 119% in [16], 114% in test [17] and 111% in [18]. The “% inh.” value amounted to 0% in [8] and 3% in [19]. The “activity of RAC1b (RAC-GTP)” value in [11] is listed as “reduced the activity”. In addition, the “activity of RAC P29S (RAC-GTP)” value in [12] was “reduced the activity”.

Source of the values: publication PMC12281424, “A Rac-specific competitive inhibitor of guanine nucleotide binding reduces metastasis in triple-negative breast cancer” (Cell Reports Medicine, 2025).
